# Results as given in patent publication US20230390274A1 (EPIRIUM BIO INC., priority 2020, published 2023).
# Target: 15-PGDH/HPGD (Homo sapiens (Human), UniProt P15428)
# Assay: hPGDH inhibitor screening biochemical assay
# Settings: 10 nM 15-PGDH/HPGD, 15 μM PGE2, 0.25 mM NAD; read-out: hPGDH: Average IC50
# Protocol: A hydroxyprostaglandin dehydrogenase inhibition screening biochemical assay can be performed to assess the synthesized inhibitors provided herein. Provided herein is an exemplary biochemical assay for hPGDH inhibitor screening.
# The in vitro biochemical assay can be performed in white, 384 plates in total 20 μl reaction volume consisting of 10 nM of 15-PGDH/HPGD (R&D System #5660-DH), 15 μM Prostaglandin E2 (Sigma, Cat #P5640-10MG) and 0.25 mM β-Nicotinamide adenine dinucleotide sodium salt (Sigma, Cat #N0632-5G) made in reaction buffer (50 mM Tris-HCl, pH 7.5, 0.01% Tween 20) at 10-point dose response curve for test/tool compounds. Briefly, 5 μl (4×) of compounds solution and 5 μl (final concentration, 10 nM) of enzyme solution is added to white 384 well plates and incubated for 10 mins at 37° C. 5 μl (4×) of Prostaglandin E2 and 5 μl (4×) of β-Nicotinamide adenine dinucleotide sodium salt is added to the wells and incubated for 10 mins at rt. Fluorescence is recorded at ex/em=340 nm/485 nm. The percentage (%) inhibition of enzyme activity was determined relative to […] (1% DMSO) and IC50 was calculated using GraphPad prism software (four parameter-variable slope equation).
# 15-PGDH/HPGD, sequence (P15428 whole entry): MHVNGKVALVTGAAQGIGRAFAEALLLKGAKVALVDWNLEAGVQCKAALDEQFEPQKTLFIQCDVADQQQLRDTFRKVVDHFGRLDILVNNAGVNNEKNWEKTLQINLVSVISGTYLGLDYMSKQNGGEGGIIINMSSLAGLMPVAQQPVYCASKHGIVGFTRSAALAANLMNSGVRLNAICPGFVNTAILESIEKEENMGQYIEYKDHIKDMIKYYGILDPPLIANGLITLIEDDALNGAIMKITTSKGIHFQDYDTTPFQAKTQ
row,Structure (SMILES),IC50 [µM]
1,"N#Cc1ccc(-n2ccc3cc(C(=O)N4CC[C@H](F)C4)cnc32)cc1 (single isomer, unassigned) [A-340]",< 0.1
2,"N#Cc1ccc(-n2ccc3cc(C(=O)N4CC[C@@H](F)C4)cnc32)cc1 (single isomer, unassigned) [A-341]",< 0.1
3,O=C(c1ccc2c(c1)ncn2-c1cccc(Cl)c1)N1CC2CCCC2C1 (stereo not shown) [A-1],< 0.1
4,O=C(c1ccc2c(c1)ncn2-c1cccc(Cl)c1)N1CCCCCC1 [A-2],< 0.1
5,O=C(c1ccc2c(c1)ncn2-c1cccc(Cl)c1)N1CC2CCC(C2)C1 [A-4],< 0.1
6,O=C(c1ccc2c(c1)ncn2-c1cccc(Cl)c1)N1CC2(CCC2)C1 [A-5],< 0.1
7,O=C(c1ccc2c(c1)ncn2-c1cccc(Cl)c1)N1CCCCC1 [A-6],< 0.1
8,O=C(c1ccc2c(c1)ncn2-c1cccc(Cl)c1)N1CCC(F)(F)CC1 [A-8],< 0.1
9,O=C(c1ccc2c(c1)ncn2-c1cccc(Cl)c1)N1CCC(F)(F)C1 [A-10],≥ 1
10,O=C(c1ccc2c(c1)ncn2-c1cccc(Cl)c1)N1CCC(Cl)C1 (stereo not shown) [A-12],< 0.1
11,O=C(c1ccc2c(c1)ncn2-c1cccc(Cl)c1)N1CCC(O)C1 (stereo not shown) [A-13],≥ 1
12,O=C(Nc1ccccc1)c1ccc2c(c1)ncn2-c1cccc(Cl)c1 [A-16],≥ 1
13,O=C(c1ccc2c(c1)ncn2-c1cccc(Cl)c1)N1CC(F)C1 [A-20],< 0.1
14,O=C(c1ccc2c(c1)ncn2-c1cccc(Cl)c1)N1CC(Cl)C1 [A-21],< 0.1
15,"CN(C(=O)c1ccc2c(c1)ncn2-c1cccc(Cl)c1)C1CC1 [A-23, 1-(3-chlorophenyl)-N-cyclopropyl-N-methyl-1H-benzo[d]imidazole-5-carboxamide]",≥ 1
16,"O=C1CCN(C(=O)c2ccc3c(c2)ncn3-c2cccc(Cl)c2)C1 [A-24, 1-(1-(3-chlorophenyl)-1H-benzo[d]imidazole-5-carbonyl)pyrrolidin-3-one]",≥ 1
17,CCOC(=O)c1nc2cc(C(=O)N3CCCCC3)ccc2n1-c1cccc(Cl)c1 [A-26],< 0.1
18,CCOC(=O)Cc1nc2cc(C(=O)N3CCCCC3)ccc2n1-c1cccc(Cl)c1 [A-27],< 0.1
19,Cc1nc2cc(C(=O)N3CCCCC3)ccc2n1-c1cccc(Cl)c1 [A-28],< 0.1
20,CCOC(=O)CCc1nc2cc(C(=O)N3CCCCC3)ccc2n1-c1cccc(Cl)c1 [A-29],< 0.1
21,O=C(O)CCc1nc2cc(C(=O)N3CCCCC3)ccc2n1-c1cccc(Cl)c1 [A-30],< 0.1
22,NC(=O)CCc1nc2cc(C(=O)N3CCCCC3)ccc2n1-c1cccc(Cl)c1 [A-31],< 0.1
23,COc1ccc(-n2cnc3cc(C(=O)N4CCCCC4)ccc32)cc1 [A-32],< 0.1
24,COc1ccc(-n2cnc3cc(C(=O)N4CCC(F)CC4)ccc32)cc1 [A-33],< 0.1

row,Structure (SMILES),IC50 [µM]
1,COc1ccc(-n2cnc3cc(C(=O)N4CCCCC4)ccc32)nc1 [A-35],< 0.1
2,"COc1ccc(-n2cnc3cc(C(=O)N4CCCCC4)ccc32)cc1Cl [A-36, (1-(3-chloro-4-methoxyphenyl)-1H-benzo[d]imidazol-5-yl)(piperidin-1-yl)methanone]",< 0.1
3,O=C(c1ccc2c(c1)ncn2-c1ccc2c(c1)OCO2)N1CCCCC1 [A-37],< 0.1
4,COc1ccc(-n2cnc3cc(C(=O)N4CCC(F)CC4)ccc32)nc1 [A-38],< 0.1
5,"O=C(c1ccc2c(c1)ncn2-c1ccc(O)c(Cl)c1)N1CCCCC1 [A-39, (1-(3-chloro-4-hydroxyphenyl)-1H-benzo[d]imidazol-5-yl)(piperidin-1-yl)methanone]",< 0.1
6,O=C(c1cnc2c(ccn2-c2cccc(Cl)c2)c1)N1CCCCC1 [A-40],< 0.1
7,O=C(c1cnc2c(ccn2-c2ccccn2)c1)N1CCCCC1 [A-41],< 0.1
8,O=C(c1cnc2c(ccn2-c2cccnc2)c1)N1CCCCC1 [A-42],< 0.1
9,O=C(c1cnc2c(ccn2-c2ccncn2)c1)N1CCCCC1 [A-43],< 0.1
10,O=C(c1cnc2c(ccn2-c2cncnc2)c1)N1CCCCC1 [A-44],< 0.1
11,O=C(c1cnc2c(ccn2-c2cnccn2)c1)N1CCCCC1 [A-45],< 0.1
12,O=C(c1cnc2c(ccn2-c2cscn2)c1)N1CCCCC1 [A-47],< 0.1
13,O=C(c1cnc2c(ccn2-c2cn[nH]c2)c1)N1CCCCC1 [A-48],< 0.1
14,Cn1cc(-n2ccc3cc(C(=O)N4CCCCC4)cnc32)cn1 [A-49],< 0.1
15,O=C(c1cnc2c(ccn2-c2cnccn2)c1)N1CCC(F)CC1 [A-50],< 0.1
16,O=C(c1cnc2c(ccn2-c2ccncn2)c1)N1CCC(F)CC1 [A-53],< 0.1
17,O=C(c1cnc2c(ccn2-c2ccc(O)nc2)c1)N1CCC(F)CC1 [A-55],< 0.1
18,O=C(c1cnc2c(ccn2-c2cccnc2)c1)N1CCC(F)CC1 [A-56],< 0.1
19,O=C(c1cnc2c(c1)c(Cl)cn2-c1cccnc1)N1CCC(F)CC1 [A-57],< 0.1
20,Cn1cc(-n2ccc3cc(C(=O)N4CCC(F)CC4)cnc32)cn1 [A-58],< 0.1
21,Cn1cc(-n2cc(Cl)c3cc(C(=O)N4CCC(F)CC4)cnc32)cn1 [A-59],< 0.1
22,O=C(c1cnc2c(c1)c(Cl)cn2-c1cncnc1)N1CCC(F)CC1 [A-60],< 0.1
23,COc1ccc(-n2ccc3cc(C(=O)N4CCC(F)CC4)cnc32)cn1 [A-61],< 0.1
24,O=C(c1cnc2c(c1)ncn2-c1cccc(Cl)c1)N1CCCCC1 [A-62],< 0.1

row,Structure (SMILES),IC50 [µM]
1,COc1ccc(-n2cnc3cc(C(=O)N4CCCCC4)cnc32)cc1 [A-63],< 0.1
2,COc1ccc(-n2cnc3cc(C(=O)N4CCC(F)CC4)cnc32)cc1 [A-64],< 0.1
3,COc1ccc(-n2cnc3cc(C(=O)N4CCC(F)(F)CC4)cnc32)cc1 [A-65],< 0.1
4,COc1ccc(-n2c(NC(C)=O)nc3cc(C(=O)N4CCC(F)CC4)cnc32)cc1 [A-68],≥ 1
5,O=C(c1ccc(COc2ccccc2Br)cc1)N1CCCCC1 [A-69],< 0.1
6,O=C(c1ccc(COc2ccccc2Cl)cc1)N1CCCCC1 [A-70],< 0.1
7,COc1cc(C(=O)N2CCCCC2)ccc1COc1ccccc1Cl [A-71],< 0.1
8,O=C(c1ccc(CSc2ccccc2Cl)cc1)N1CCCCC1 [A-72],< 0.1
9,O=C(c1ccc(COc2ccccc2Cl)cn1)N1CCC(F)CC1 [A-76],≥ 1
10,O=C(c1ccc(COc2ccccc2-c2ccccn2)cc1)N1CCCCC1 [A-77],< 0.1
11,O=C(c1ccc(COc2ccccc2-c2cnc[nH]2)cc1)N1CCCCC1 [A-78],< 0.1
12,O=C(c1ccc(COc2ccccc2-c2cncs2)cc1)N1CCCCC1 [A-79],< 0.1
13,COc1ccccc1C(=O)Nc1ccc(C(=O)N2CCCCC2)cc1 [A-80],< 0.1
14,COc1ccccc1C(=O)N(C)c1ccc(C(=O)N2CCCCC2)cc1 [A-81],≥ 1
15,O=C(c1ccc2c(ccn2-c2cccc(Cl)c2)c1)N1CCCCC1 [A-87],< 0.1
16,O=C(c1ccc2c(c1)c(Cl)cn2-c1cccc(Cl)c1)N1CCCCC1 [A-88],< 0.1
17,"O=C(c1ccc2c(-c3cccc(Cl)c3)c[nH]c2c1)N1CCCCC1 [A-89, (3-(3-chlorophenyl)-1H-indol-6-yl)(piperidin-1-yl)methanone]",< 0.1
18,"Cn1cc(-c2cccc(Cl)c2)c2ccc(C(=O)N3CCCCC3)cc21 [A-90, (3-(3-chlorophenyl)-1-methyl-1H-indol-6-yl)(piperidin-1-yl)methanone]",< 0.1
19,"O=C(c1ccc2c(c1)CCCN2c1cccc(Cl)c1)N1CCCCC1 [A-91, (1-(3-chlorophenyl)-1,2,3,4-tetrahydroquinolin-6-yl)(piperidin-1-yl)methanone]",< 0.1
20,"O=C(c1ccc2c(cnn2-c2cccc(Cl)c2)c1)N1CCCCC1 [A-93, (1-(3-chlorophenyl)-1H-indazol-5-yl)(piperidin-1-yl)methanone]",< 0.1
21,"O=C(c1ccn2c(-c3cccc(Cl)c3)cnc2c1)N1CCCCC1 [A-94, (3-(3-chlorophenyl)imidazo[1,2-a]pyridin-7-yl)(piperidin-1-yl)methanone]",< 0.1
22,"O=C(c1ccc2c(c1)nnn2-c1cccc(Cl)c1)N1CCCCC1 [A-95, (1-(3-chlorophenyl)-1H-benzo[d][1,2,3]triazol-5-yl)(piperidin-1-yl)methanone]",< 0.1
23,"O=C(c1cnc2c(-c3cccc(Cl)c3)cnn2c1)N1CCCCC1 [A-96, (3-(3-chlorophenyl)pyrazolo[1,5-a]pyrimidin-6-yl)(piperidin-1-yl)methanone]",< 0.1

# Same assay, conditions: Table 1, PGDH inhibitors with a 6-5 ring core; read-out: hPGDH: IC50
row,Structure (SMILES),IC50 [µM]
1,O=C(c1ccc2c(c1)ncn2-c1cccc(Cl)c1)N1CCC(F)C1 (stereo not shown),0.158
2,O=C(c1ccc2c(c1)ncn2-c1cccc(Cl)c1)N1CCCC1,0.274
3,NC(=O)Cc1nc2cc(C(=O)N3CCCCC3)ccc2n1-c1cccc(Cl)c1,0.576
4,O=C(c1ccc2c(c1)ncn2-c1cccc(Cl)c1)N1CC2CC2C1 (stereo not shown),0.116
5,COc1ccc(-n2c(C3CC3)nc3cc(C(=O)N4CCCCC4)ccc32)cc1,0.197

# Same assay, conditions: Table 2, PGDH inhibitors with a phenyl core; read-out: hPGDH: IC50
row,Structure (SMILES),IC50 [µM]
1,COc1cccc(C(=O)Nc2ccc(C(=O)N3CCCCC3)cc2)c1,0.135
2,O=C(Nc1ccc(C(=O)N2CCCCC2)cc1)c1ccccc1Cl,0.277
3,COc1ccccc1NC(=O)c1ccc(C(=O)N2CCCCC2)cc1,0.593
